Assay results reported in US11236357B2, “Methods of obtaining androecious cucurbit plants” (INSTITUT NATIONAL DE LA RECHERCHE AGRONOMIQUE (INRA), priority 2012, dated 2022).

Experiments:
[1] = test system: androecious plants (cucurbitaceae); test: Induction of female flowers in androecious plants by ethrel; format: in vivo; conditions: androecious plants treated with ethrel
Text: The inventors wished to study the transmission of the androecious phenotype from one generation to the other. However, due to the nature of the plants, it is obviously impossible to fecundate an androecious plant with itself or another androecious plant.
The inventors have then treated the plants with ethrel, a growth regulator known for inducing female flowers in cucurbitaceae. […] The seeds derived from this fruit have been planted to produce plants which phenotype is androecious: the androecious phenotype of the present invention is thus heritable.

monoecious melon plants = conditions: monoecious plants treated by ethrel; prior art; cited from earlier work
[2] = target: Cucumis melo ACS8 variant Cmacs8_L45F (L45→F), SEQ ID No 15 (Cucumis melo, UniProt A0A0S2C3P7, L45F); format: biochemical; conditions: PLP 5 μm; pH 8.5, 25° C.
Experimental: (§1) Dosing the Transforming Activity of Methionine S-adenosyl into Aminocyclopropane Carboxylate by the 1-aminocyclopropane-1-carboxylate Synthase 8 (ACS8)
(§2) The enzymatic activity of the ACS8 is measured in vitro by following, by 265-nm spectrophotometry, the formation of 5′-methylthioadenosine (MTA) after involving methionine S-adenosyl, deaminase and different PLP concentrations (pyridoxal 5′-phosphate).
The bacterial strain Escherichia coli BL21(DE3)pLYSS is used for the expression of the enzyme. The cloning vector used is the plasmid pET15b (NOVAGEN) which carries the promoter T7 and comprises resistance to ampicillin. S-adenosyl Methionine (SAM), Pyridoxal 5′phosphate (PLP) and 5′Adenylic Acid Deaminase of Aspergillus (deaminase) are available from the SIGMA company. […]
Due to the presence of a Histidine tag associated with each of the ACS8, the latter are purified by using a nickel column (Ni-IDA 15 ml) previously balanced with TRIS at PH8 and NaCl (500 mM). After passing the solution containing recombinant ACS8 to be purified, the column is then washed with TRIS at PH8 (50 mM) and NaCl (500 mM) added with imidazole (10 mM) until no protein can be detected at the output any longer. […]

[3] = target: Cucumis melo ACS8 (1-aminocyclopropane-1-carboxylate synthase 8), CmACS8, wild, SEQ ID No 12 (Cucumis melo, UniProt A0A0S2C3P7); test: Transforming activity of methionine S-adenosyl into aminocyclopropane carboxylate (MTA formation at 265 nm); format: biochemical; conditions: pH 8.5, 25° C.
Experimental: as §1, §2
(§3) The bacterial strain Escherichia coli BL21(DE3)pLYSS is used for the expression of the enzyme. The cloning vector used is the plasmid pET15b (NOVAGEN) which carries the promoter T7 and comprises resistance to ampicillin. S-adenosyl Methionine (SAM), Pyridoxal 5′phosphate (PLP) and 5′Adenylic Acid Deaminase of Aspergillus (deaminase) are available from the SIGMA company.
(§4) These bacteria Escherichia coli BL21(DE3)pLYSS transformed with the construct carrying the 1-aminocyclopropane-1-carboxylate synthase 8 (ACS8) are incubated in 25 ml LURIA-BERTANI medium (tryptone 10 g/L, yeast extract 5 g/L, NaCl 10 g/L) added with ampicillin and chloramphenicol (50 μg/ml each) overnight at 37° C. This pre-culture is used to inoculate 2 litres of the same medium added with ampicillin (50 μg/ml) and the cells are cultivated at 37° C. in a stirred incubator (180 rpm) up to 0.6 Optical Density (DO=600 nm). IPTG is added (0.5 mM) so as to induce the protein expression during a new 5-hour culture phase at 25° C. Cells are centrifuged and kept overnight at −45° C. Cells are then re-suspended in 15 ml TrisNaCl (50 mM, pH7.9, 500 mM, respectively) then subjected to ice sonication in the presence of a protease inhibitor (phenylmethanesulfonyl fluoride), leupeptin, pepstatin and aprotinin, 10 μg/ml each). The cellular debris are removed during a new centrifugation step at 13,000 g during 15 minutes and the supernatant is immediately used for enzymatic purification.
(§5) Due to the presence of a Histidine tag associated with each of the ACS8, the latter are purified by using a nickel column (Ni-IDA 15 ml) previously balanced with TRIS at PH8 and NaCl (500 mM). After passing the solution containing recombinant ACS8 to be purified, the column is then washed with TRIS at PH8 (50 mM) and NaCl (500 mM) added with imidazole (10 mM) until no protein can be detected at the output any longer. The ACS8 are then eluted with the same buffer solution added with imidazole at 100 mM, then dialysed (KPhos 50 mM á PH8.5) before concentration (MILLIPORE AMICON ULTRA DEVICE, 5000 MWC0). The concentrated fraction (20 mg/ml) of ACS8 is aliquoted and stored with glycerol at −45° C. The purification of protein is followed by capillary electrophoresis (EXPERION DEVICE—BIO RAD) with a PRO260 chip.

[4] = target: Cucumis melo ACS8 variant Cmacs8_G72E (G72E), SEQ ID not listed (Cucumis melo, UniProt A0A0S2C3P7, G72E); test: as above; format: biochemical; conditions: pH 8.5, 25° C.
Experimental: as §1, §2, §3, §4, §5

[5] = target: Cucumis melo ACS8 variant Cmacs8_S295F (S295→F), SEQ ID No 18 (Cucumis melo, UniProt A0A0S2C3P7, S295F); test: as above; format: biochemical; conditions: pH 8.5, 25° C.
Experimental: as §1, §2, §3, §4, §5

[6] = target: T1, Cucumis sativus ACS8 (1-aminocyclopropane-1-carboxylate synthase 8), CsACS8, wild, SEQ ID No 3 (Cucumis sativus, UniProt A0A0A0LKW1); test: as above; format: biochemical; conditions: pH 8.5, 25° C.
T1 construct: N-terminus MASLSSKASHDSHGQNSS
T1 sequence (A0A0A0LKW1 1-440): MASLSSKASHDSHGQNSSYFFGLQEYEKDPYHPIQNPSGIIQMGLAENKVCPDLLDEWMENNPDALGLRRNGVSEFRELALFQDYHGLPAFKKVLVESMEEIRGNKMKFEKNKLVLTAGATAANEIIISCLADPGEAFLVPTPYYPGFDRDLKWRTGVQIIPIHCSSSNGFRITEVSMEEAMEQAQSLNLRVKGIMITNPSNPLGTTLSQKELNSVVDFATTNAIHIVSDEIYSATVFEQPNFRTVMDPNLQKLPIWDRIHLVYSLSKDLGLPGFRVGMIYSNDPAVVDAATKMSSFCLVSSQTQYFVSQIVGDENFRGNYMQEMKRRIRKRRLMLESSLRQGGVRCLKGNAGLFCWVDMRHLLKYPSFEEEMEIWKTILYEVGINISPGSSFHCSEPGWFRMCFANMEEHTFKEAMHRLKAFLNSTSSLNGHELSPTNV
Experimental: as §1, §2, §3, §4, §5

Cucumis melo ACS8 variant Cmacs8_G72E (G72E), SEQ ID not listed, sequence (A0A0S2C3P7 entry or part of it G72E): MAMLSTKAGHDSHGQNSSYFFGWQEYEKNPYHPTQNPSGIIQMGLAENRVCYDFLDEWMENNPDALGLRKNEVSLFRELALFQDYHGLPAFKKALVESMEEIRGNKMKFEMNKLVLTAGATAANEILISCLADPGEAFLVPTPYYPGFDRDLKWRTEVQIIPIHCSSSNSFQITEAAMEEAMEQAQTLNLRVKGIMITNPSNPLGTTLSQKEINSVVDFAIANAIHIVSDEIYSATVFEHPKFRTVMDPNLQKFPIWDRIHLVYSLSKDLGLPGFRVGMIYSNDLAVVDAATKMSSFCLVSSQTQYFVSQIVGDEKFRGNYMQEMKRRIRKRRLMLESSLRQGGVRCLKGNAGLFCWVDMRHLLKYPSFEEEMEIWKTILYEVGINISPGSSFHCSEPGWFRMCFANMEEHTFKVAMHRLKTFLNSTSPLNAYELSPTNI
Cucumis melo ACS8 variant Cmacs8_S295F (S295→F), SEQ ID No 18, sequence (A0A0S2C3P7 entry or part of it S295F): as the sequence (A0A0S2C3P7 entry or part of it G72E) above, with E72G, S295F counted along it
Cucumis melo ACS8 (1-aminocyclopropane-1-carboxylate synthase 8), CmACS8, wild, SEQ ID No 12, sequence (A0A0S2C3P7 1-440): as the sequence (A0A0S2C3P7 entry or part of it G72E) above, with E72G counted along it
Cucumis melo ACS8 variant Cmacs8_L45F (L45→F), SEQ ID No 15, sequence (A0A0S2C3P7 entry or part of it L45F): as the sequence (A0A0S2C3P7 entry or part of it G72E) above, with L45F, E72G counted along it

| Compound | production of female flowers after treatment [1] | effect on male flowers (monoecious melon plants) | Km [2] [µM] | Km ([3]; PLP 5 μm) [µM] | Km ([3]; PLP 100 μm) [µM] | Km ([4]; PLP 5 μm) [µM] | Km ([4]; PLP 100 μm) [µM] | Km ([5]; PLP 5 μm) [µM] | Km ([5]; PLP 100 μm) [µM] | Km ([6]; PLP 5 μm) [µM] | Km ([6]; PLP 100 μm) [µM] |
| --- | --- | --- | --- | --- | --- | --- | --- | --- | --- | --- | --- |
| O=P(O)(O)CCCl [ethrel] | briefly produced female flowers | temporary disappearance of male flowers |  |  |  |  |  |  |  |  |  |
| C[S+](CC[C@H](N)C(=O)[O-])C[C@H]1O[C@@H](n2cnc3c(N)ncnc32)[C@H](O)[C@@H]1O (some centres unmarked) [S-adenosyl Methionine] |  |  | 23 ± 4 | 20 ± 5 | 20 ± 5 | 17 ± 5 | 15 ± 5 | 16 ± 5 | 15 ± 5 | 20 ± 6 | 25 ± 6 |
